Laboratory results from patent publication EP4737445A1, “NOVEL SATURATED HETEROCYCLE-SUBSTITUTED HETEROARYL-CARBONOHYDRAZONOYL DICYANIDE COMPOUND AND USE THEREOF” (Korea Institute of Science and Technology, priority 2023, dated 2025).

What was measured:
CYP2C9 = molecular target: T1, CYP2C9 (Homo sapiens, UniProt P11712); experiment: CYP isoenzyme activity inhibition in human liver microsomes, CYP2C9; type: in vitro ADME; details: 10 µM compound; human liver microsomes 0.25 mg/mL; relative to control without compound
T1 construct: human liver microsomes (0.25 mg/mL); from tissue; host or cells: human liver microsomes
How it was run: (§1)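 Human liver microsomes 0.25 mg/mL, pH 7.4 phosphate, with cocktail substrates phenacetin 50 µM (1A2), diclofenac 10 µM (2C9), S-mephenytoin 100 µM (2C19), midazolam 2.5 µM (3A4); compound at 10 µM. 5 min pre-incubation, then NADPH for 15 min at 37 °C; metabolites by LC-MS/MS MRM, reported as % activity of no-compound control.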

CYP2C19 = molecular target: T2, CYP2C19 (Homo sapiens, UniProt P33261); experiment: CYP isoenzyme activity inhibition in human liver microsomes, CYP2C19; type: in vitro ADME; details: 10 µM compound; human liver microsomes 0.25 mg/mL; relative to control without compound
T2 construct: human liver microsomes (0.25 mg/mL); from tissue; host or cells: human liver microsomes
How it was run: as §1

TDP-43 BiFC cells = experiment: Cell viability (stained nuclei count) in TDP-43-BiFC cells; type: cell-based; details: Forskolin-only group = 100%
How it was run: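 Forskolin (30 µM) co-treated with compound (screen 3 and 10 µM; dose-response 0.003–10 µM) for 48 h. BiFC fluorescence normalised to Forskolin-only (100% aggregation) minus untreated; viability from Hoechst-stained nuclei count vs Forskolin-only. IC50 by nonlinear regression.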

CYP1A2 = molecular target: T3, CYP1A2 (Homo sapiens, UniProt P05177); experiment: CYP isoenzyme activity inhibition in human liver microsomes, CYP1A2; type: in vitro ADME; details: 10 µM compound; human liver microsomes 0.25 mg/mL; relative to control without compound
T3 construct: human liver microsomes (0.25 mg/mL); from tissue; host or cells: human liver microsomes
T3 sequence (P05177 1-516): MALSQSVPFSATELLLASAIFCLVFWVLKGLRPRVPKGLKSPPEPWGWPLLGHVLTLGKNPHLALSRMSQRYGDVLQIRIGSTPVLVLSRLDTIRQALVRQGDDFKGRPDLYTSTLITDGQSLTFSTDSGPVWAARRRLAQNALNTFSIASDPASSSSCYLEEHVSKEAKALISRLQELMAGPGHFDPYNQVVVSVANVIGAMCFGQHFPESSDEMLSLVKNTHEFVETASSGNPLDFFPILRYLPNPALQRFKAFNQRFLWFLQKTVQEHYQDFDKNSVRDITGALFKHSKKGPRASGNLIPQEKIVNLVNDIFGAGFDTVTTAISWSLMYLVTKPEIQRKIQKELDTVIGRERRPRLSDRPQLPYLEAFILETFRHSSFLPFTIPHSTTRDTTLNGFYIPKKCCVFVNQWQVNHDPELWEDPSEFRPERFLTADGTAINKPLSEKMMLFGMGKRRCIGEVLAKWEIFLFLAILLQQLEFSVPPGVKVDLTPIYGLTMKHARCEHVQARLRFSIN
How it was run: as §1

T2 sequence (P33261 whole entry): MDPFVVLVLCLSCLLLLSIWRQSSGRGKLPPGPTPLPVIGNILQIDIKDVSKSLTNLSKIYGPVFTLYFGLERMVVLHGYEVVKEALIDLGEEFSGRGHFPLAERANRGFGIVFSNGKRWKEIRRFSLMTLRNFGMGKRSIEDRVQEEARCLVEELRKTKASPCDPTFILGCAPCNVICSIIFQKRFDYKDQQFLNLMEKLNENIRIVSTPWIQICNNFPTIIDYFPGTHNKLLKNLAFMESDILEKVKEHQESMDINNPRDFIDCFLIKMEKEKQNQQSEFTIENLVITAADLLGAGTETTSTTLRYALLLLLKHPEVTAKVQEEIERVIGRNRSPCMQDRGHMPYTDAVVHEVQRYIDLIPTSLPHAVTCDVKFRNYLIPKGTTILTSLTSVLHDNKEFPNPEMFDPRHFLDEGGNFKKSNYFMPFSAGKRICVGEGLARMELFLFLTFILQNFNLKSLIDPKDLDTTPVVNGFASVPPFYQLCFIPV
T1 sequence (P11712 whole entry): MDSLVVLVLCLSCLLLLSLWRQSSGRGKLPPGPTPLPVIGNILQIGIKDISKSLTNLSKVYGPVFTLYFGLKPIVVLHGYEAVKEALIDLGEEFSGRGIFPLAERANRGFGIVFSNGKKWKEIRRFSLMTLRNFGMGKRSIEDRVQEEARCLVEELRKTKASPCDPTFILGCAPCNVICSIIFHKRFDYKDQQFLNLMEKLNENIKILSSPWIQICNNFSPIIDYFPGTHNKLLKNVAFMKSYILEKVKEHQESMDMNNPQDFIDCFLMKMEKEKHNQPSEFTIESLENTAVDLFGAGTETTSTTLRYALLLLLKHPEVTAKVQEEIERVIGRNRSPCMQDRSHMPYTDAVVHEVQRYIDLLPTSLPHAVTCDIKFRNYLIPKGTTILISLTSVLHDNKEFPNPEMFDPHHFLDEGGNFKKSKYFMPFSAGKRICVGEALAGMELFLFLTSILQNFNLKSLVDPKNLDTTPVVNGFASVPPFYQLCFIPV

Compound | CYP2C9 (% activity) (CYP2C9) | CYP2C19 (% activity) (CYP2C19) | Cell viability (%) (@ 3 uM) (TDP-43 BiFC cells) | CYP1A2 (% activity) (CYP1A2)
N#CC(C#N)=NNc1ccc2nc(NC(=O)N3CC4CCC(C3)O4)sc2c1 [Compound 40, (2-(8-oxa-3-azabicyclo[3.2.1]octane-3-carboxamido)benzo[d]thiazol-6-yl)carbonohydrazonoyl dicyanide] | 46.9 % activity | 65.7 % activity | 95.6% | 80.2 % activity
N#CC(C#N)=NNc1ccc2nc(N3CC[C@@H](F)C3)oc2c1 [Compound 41, (R)-(2-(3-fluoropyrrolidin-1-yl)benzo[d]oxazol-6-yl)carbonohydrazonoyl dicyanide] | 51.2 % activity | 86.7 % activity | 71.5% | 71.9 % activity
